Legend:
[1] = Arterial blood gas analysis; type: in vivo, rabbit; settings: for pH: arterial blood
Protocol: (§1) Male New Zealand white rabbits weighing between 2.5 and 3.0 kg were anesthetized with intravenous sodium pentobarbital (30 mg/kg). Additional doses of pentobarbital were titrated as required to assure that pedal and palpebral reflexes were absent throughout the experiment. A tracheotomy was performed through a ventral midline incision, and the trachea was cannulated. The rabbits were ventilated with positive pressure using an air-oxygen mixture (FiO2=0.33). […] Body temperature was maintained with a heating blanket. Heparin-filled catheters were inserted into the right carotid artery and the left jugular vein for measurement of arterial blood pressure and fluid or drug administration, respectively. Maintenance fluids consisted of 0.9% saline (15 ml/kg/h) that were continued for the duration of the experiment.
(§2) Baseline measurements of systemic hemodynamics, arterial blood gas tensions, and blood concentrations of anesthetic agent were performed 30 min after instrumentation was completed. Rabbits received 0.9% saline, drug lipid vehicle (10 ml/h), or intravenous volatile anesthetic (10 ml/h) for 30 min. Infusions were discontinued 30 min prior to coronary occlusion (memory period). Blood concentrations of anesthetic agents were performed at baseline, at the end of anesthetic infusion, and at the end of the memory period just before coronary occlusion). HVA concentrations in blood were determined by gas chromatographic (GC) analysis. All rabbits underwent a 30 min LAD occlusion followed by 3 h reperfusion.
(§3) Statistical analysis of data within and between groups was performed with analysis of variance (ANOVA) for repeated measures followed by Student-Newman-Keuls test. Changes between groups were considered statistically significant when the p value was less than 0.05. All data are expressed as mean±SEM.

[2] = End-tidal gas analysis; type: in vivo, rabbit; settings: for EtHalogenated: end-tidal
Protocol: as §2, §3

[3] = Systemic hemodynamics during infarct experiment; type: in vivo, rabbit
Protocol: as §1
A left thoracotomy was performed at the fourth intercostal space, and the heart was suspended in a pericardial cradle. A prominent branch of the left anterior descending coronary artery (LAD) was selected, and a silk ligature was placed around this artery approximately halfway between the base and apex for the production of coronary artery occlusion and reperfusion in myocardial infarct size experiments. Each rabbit was anticoagulated with 500 U of heparin immediately before LAD occlusion. Coronary artery occlusion was verified by the presence of epicardial cyanosis and regional dyskinesia in the ischemic zone, and reperfusion was confirmed by observing an epicardial hyperemic response. Hemodynamics were continuously recorded on a polygraph throughout experimentation. After the surgical preparation, 30 min of stabilization were allowed.
as §2, §3

[4] = blood/gas; cited from earlier work
[5] = Blood concentration of anesthetics by GC and conversion to MAC-equivalents; type: in vivo, rabbit
Protocol: as §2
Blood concentrations as measured by GC were converted to their MAC-equivalent values by calculations described below. Initially “n”, or the number of moles of HVA in 1 L of alveolar gas during exposure to 1.0 MAC of the HVA was calculated. The ideal gas law n=PV/RT is used to calculate the number of moles of HVA present at 1 MAC in the alveolar gas where: V=1 L, T=273+37=310° (K); and R=0.0821 (universal gas constant). P or pressure was determined taking into account the vapor pressure of water at 37° C. which is 47.1 torr, and the volume percent of the HVA. Volume percentages of HVAs (MAC values) were obtained from literature values determined in rabbits (Scheller et al. Can. J. Anaesth. 1988, 35: 133-136; Drummond, J C Anesthesiology 1985; 62: 336-8, and Doorley et al. Anesthesiology 1988; 69, 89-91), and are presented in Table 8.
The number of moles of the HVA in 1 L at 37° C. at 1 MAC in rabbits was then used to determine the concentration of the HVA present in blood by using known blood/gas partition values (also known as λ). Blood gas partition values for the HVAs used in the study are show in Table 8. The value for “x” (or the equivalent blood concentration of the HVA at 1 MAC at 37° C. in rabbit) is then determined by the equation: x=λn
To express a measured blood concentration of an HVA as a MAC-equivalent value, the measured blood concentration is divided by x. The MAC equivalent values shown in Table 8 were calculated according to the above from the blood concentrations observed (see Table 7).

[6] = i.v. emulsion 10 ml/h for 30 min, Baseline
[7] = Infusion (end of 30 min, 10 ml/h i.v. infusion)
[8] = Memory (30 min after infusion, just before coronary occlusion)
[9] = measured blood concentration divided by x

FC(F)OC(F)(F)C(F)Cl (stereo not drawn) [ENF, enflurane]
PaCO2 ([1]; Baseline): 28 ± 2 mmHg
PaO2 ([1]; Baseline): 151 ± 16 mmHg
PaCO2 ([1]; Infusion): 31 ± 2 mmHg
PaO2 ([1]; Infusion): 130 ± 14 mmHg
PaCO2 ([1]; Ischemia 30 min): 32 ± 2 mmHg
PaO2 ([1]; Ischemia 30 min): 157 ± 22 mmHg
PaCO2 ([1]; Memory): 30 ± 2 mmHg
PaO2 ([1]; Memory): 149 ± 16 mmHg
PaCO2 ([1]; Reperfusion 1 h): 28 ± 2 mmHg
PaO2 ([1]; Reperfusion 1 h): 143 ± 11 mmHg
PaCO2 ([1]; Reperfusion 2 h): 27 ± 2 mmHg
PaO2 ([1]; Reperfusion 2 h): 135 ± 10 mmHg
PaCO2 ([1]; Reperfusion 3 h): 32 ± 3 mmHg
PaO2 ([1]; Reperfusion 3 h): 131 ± 12 mmHg
pH ([1]; Baseline): 7.47 ± 0.02
pH ([1]; Infusion): 7.41 ± 0.02
pH ([1]; Ischemia 30 min): 7.37 ± 0.02
pH ([1]; Memory): 7.40 ± 0.02
pH ([1]; Reperfusion 1 h): 7.38 ± 0.02
pH ([1]; Reperfusion 2 h): 7.40 ± 0.03
pH ([1]; Reperfusion 3 h): 7.42 ± 0.02
EtCO2 ([2]; Baseline): 36 ± 2 mmHg
EtCO2 ([2]; Infusion): 37 ± 2 mmHg
EtCO2 ([2]; Ischemia 30 min): 33 ± 3 mmHg
EtCO2 ([2]; Memory): 34 ± 2 mmHg
EtCO2 ([2]; Reperfusion 1 h): 33 ± 3 mmHg
EtCO2 ([2]; Reperfusion 2 h): 33 ± 3 mmHg
EtCO2 ([2]; Reperfusion 3 h): 35 ± 3 mmHg
EtHalogenated ([2]; Baseline): 0%
EtHalogenated ([2]; Infusion): 0.27 ± 0.02%
EtHalogenated ([2]; Ischemia 30 min): 0.00 ± 0.00%
EtHalogenated ([2]; Memory): 0.02 ± 0.01%
EtHalogenated ([2]; Reperfusion 1 h): 0.00 ± 0.00%
EtHalogenated ([2]; Reperfusion 2 h): 0.00 ± 0.00%
EtHalogenated ([2]; Reperfusion 3 h): 0.00 ± 0.00%
MAP ([3]; Baseline): 78 ± 4 mmHg
RPP ([3]; Baseline): 22 ± 1.9 bpm × mmHg × 10^3
HR ([3]; Infusion): 240 ± 11 bpm
MAP ([3]; Infusion): 68 ± 3 mmHg
RPP ([3]; Infusion): 18.9 ± 1.5 bpm × mmHg × 10^3
HR ([3]; Ischemia 30 min): 213 ± 9 bpm
MAP ([3]; Ischemia 30 min): 59 ± 6 mmHg
RPP ([3]; Ischemia 30 min): 14.5 ± 1.7 bpm × mmHg × 10^3
HR ([3]; Memory): 231 ± 11 bpm
MAP ([3]; Memory): 70 ± 3 mmHg
RPP ([3]; Memory): 18.9 ± 1.4 bpm × mmHg × 10^3
HR ([3]; Reperfusion 1 h): 216 ± 7 bpm
MAP ([3]; Reperfusion 1 h): 65 ± 6 mmHg
RPP ([3]; Reperfusion 1 h): 15.8 ± 1.5 bpm × mmHg × 10^3
HR ([3]; Reperfusion 2 h): 214 ± 10 bpm
MAP ([3]; Reperfusion 2 h): 68 ± 7 mmHg
RPP ([3]; Reperfusion 2 h): 16.5 ± 1.6 bpm × mmHg × 10^3
HR ([3]; Reperfusion 3 h): 210 ± 7 bpm
MAP ([3]; Reperfusion 3 h): 75 ± 5 mmHg
RPP ([3]; Reperfusion 3 h): 17.6 ± 1.3 bpm × mmHg × 10^3
HR [3, 6]: 248 ± 10 bpm
Partition Coefficient ("λ") [4]: 1.9
Blood Concentration ([5]; Baseline): 0 µM
Blood Concentration [5, 7]: 310 ± 30 µM
Blood Concentration [5, 8]: 60 ± 10 µM
Observed Blood Concentration following 30 min, 10 mL/h Infusion ([5]; i.v. emulsion): 0.31 mM
Observed Blood Concentration following 30 min, 10 mL/h Infusion [5, 9]: 0.15 MAC-Equivalents

FCOC(C(F)(F)F)C(F)(F)F [SEVO, sevoflurane]
PaCO2 ([1]; Baseline): 37 ± 1 mmHg
PaO2 ([1]; Baseline): 125 ± 8^ mmHg
PaCO2 ([1]; Infusion): 38 ± 1 mmHg
PaO2 ([1]; Infusion): 118 ± 6 mmHg
PaCO2 ([1]; Ischemia 30 min): 40 ± 1 mmHg
PaO2 ([1]; Ischemia 30 min): 106 ± 12 mmHg
PaCO2 ([1]; Memory): 41 ± 1 mmHg
PaO2 ([1]; Memory): 107 ± 11 mmHg
PaCO2 ([1]; Reperfusion 1 h): 38 ± 1 mmHg
PaO2 ([1]; Reperfusion 1 h): 120 ± 7 mmHg
PaCO2 ([1]; Reperfusion 2 h): 38 ± 1 mmHg
PaO2 ([1]; Reperfusion 2 h): 127 ± 6^ mmHg
PaCO2 ([1]; Reperfusion 3 h): 39 ± 1 mmHg
PaO2 ([1]; Reperfusion 3 h): 121 ± 8 mmHg
pH ([1]; Baseline): 7.44 ± 0.01
pH ([1]; Infusion): 7.42 ± 0.01
pH ([1]; Ischemia 30 min): 7.38 ± 0.01
pH ([1]; Memory): 7.39 ± 0.01
pH ([1]; Reperfusion 1 h): 7.39 ± 0.01
pH ([1]; Reperfusion 2 h): 7.40 ± 0.01
pH ([1]; Reperfusion 3 h): 7.39 ± 0.01
EtCO2 ([2]; Baseline): 35 ± 1 mmHg
EtCO2 ([2]; Infusion): 36 ± 1 mmHg
EtCO2 ([2]; Ischemia 30 min): 35 ± 1 mmHg
EtCO2 ([2]; Memory): 36 ± 1 mmHg
EtCO2 ([2]; Reperfusion 1 h): 34 ± 1 mmHg
EtCO2 ([2]; Reperfusion 2 h): 33 ± 1 mmHg
EtCO2 ([2]; Reperfusion 3 h): 34 ± 1 mmHg
EtHalogenated ([2]; Baseline): 0%
EtHalogenated ([2]; Infusion): 0.34 ± 0.02%
EtHalogenated ([2]; Ischemia 30 min): 0.04 ± 0.01%
EtHalogenated ([2]; Memory): 0.07 ± 0.01%
EtHalogenated ([2]; Reperfusion 1 h): 0.03 ± 0.01%
EtHalogenated ([2]; Reperfusion 2 h): 0.04 ± 0.01%
EtHalogenated ([2]; Reperfusion 3 h): 0.05 ± 0.01%
MAP ([3]; Baseline): increased
RPP ([3]; Baseline): 22.9 ± 1.3 bpm × mmHg × 10^3
MAP ([3]; Baseline, listed as SEV): 92 ± 4 mmHg
HR ([3]; Infusion): 235 ± 9 bpm
MAP ([3]; Infusion): increased
RPP ([3]; Infusion): 23.7 ± 1.7 bpm × mmHg × 10^3
MAP ([3]; Infusion, listed as SEV): 91 ± 4 mmHg
HR ([3]; Ischemia 30 min): 214 ± 8 bpm
MAP ([3]; Ischemia 30 min): 64 ± 5 mmHg
RPP ([3]; Ischemia 30 min): 15.7 ± 1.6 bpm × mmHg × 10^3
HR ([3]; Memory): 227 ± 11 bpm
MAP ([3]; Memory): 87 ± 4 mmHg
RPP ([3]; Memory): 22.1 ± 1.8 bpm × mmHg × 10^3
HR ([3]; Reperfusion 1 h): 206 ± 9 bpm
MAP ([3]; Reperfusion 1 h): 65 ± 3 mmHg
RPP ([3]; Reperfusion 1 h): 15.2 ± 1.3 bpm × mmHg × 10^3
HR ([3]; Reperfusion 2 h): 193 ± 10 bpm
MAP ([3]; Reperfusion 2 h): 65 ± 3 mmHg
RPP ([3]; Reperfusion 2 h): 14 ± 1.2 bpm × mmHg × 10^3
HR ([3]; Reperfusion 3 h): 188 ± 9 bpm
MAP ([3]; Reperfusion 3 h): 65 ± 2 mmHg
RPP ([3]; Reperfusion 3 h): 13.8 ± 0.8 bpm × mmHg × 10^3
HR [3, 6]: 227 ± 7 bpm
Partition Coefficient ("λ") [4]: 0.69
Blood Concentration ([5]; Baseline): 0 µM
Blood Concentration [5, 7]: 150 ± 10 µM
Blood Concentration [5, 8]: 20 ± 0 µM
Observed Blood Concentration following 30 min, 10 mL/h Infusion ([5]; i.v. emulsion): 0.15 mM
Observed Blood Concentration following 30 min, 10 mL/h Infusion [5, 9]: 0.16 MAC-Equivalents

Reference: patent publication US7999011B2, “Method for cardioprotection and neuroprotection by intravenous administration of halogenated volatile anesthetics” (Baxter International Inc., priority 2002, dated 2011)
